Here are results for 18 compounds from patent US12668599B2, “Heterobifunctional compounds and methods of treating disease” (Halda Therapeutics OpCo, Inc., priority 2023, dated 2026).

As a reminder, the GI50 is the concentration giving 50% growth inhibition. A higher GI50 goes with less potent growth inhibition.

In assay [1] the test system is T-Rex 293 cell line SC3 cells having increased expression of androgen receptor protein due to exposure to doxycycline. The experiment in a line: Cellular growth inhibition, T-Rex 293 SC3 cells with doxycycline-induced androgen receptor (CellTiter-Glo 2.0, 72 hours). The format is cell-based. To be noted: for GI50: T-Rex 293 SC3 cells with 10 ng/ml doxycycline (increased androgen receptor expression), 72 hours, CellTiter-Glo 2.0; for Ratio of GI50's: GI50 of the top compound in the pair divided by GI50 of the lower compound, T-Rex 293 SC3 cells with doxycycline-induced androgen receptor. The procedure: (§1) Ability of the test compounds to inhibit proliferation of the foregoing cell types was evaluated according to the procedures set forth below.
(§2) The doxycycline-inducible androgen receptor protein expressing cell line was established using the following protocol: T-Rex 293 cells were purchased from Invitrogen (Cat #R71007) and transfected using Lipofectamine 2000 with the wild-type androgen receptor protein sequence cloned into the pcDNA4/TO vector. Transfected cells were selected using 400 μg/mL Zeocin (Invitrogen Cat #R25001). Following selection, single clones were raised and maintained in Dulbecco's Modified Eagle Medium (DMEM) supplemented with 10% w/w Tetracycline-free fetal bovine serum (FBS) and 250 μg/mL Zeocin. Clones were analyzed for expression of androgen receptor protein in the presence and absence of 10 ng/ml doxycycline (Sigma Cat #D9891), and a single doxycycline-inducible clone (hereinafter “SC3”) was selected for use in downstream assays.
(§3) The SC3 cells were seeded on poly-D-lysine coated, black clear-bottom 384-well plates at 2500/well, in 25 μL Phenol Red Free Dulbecco's Modified Eagle Medium (DMEM) supplemented with 10% w/w charcoal-dextran treated fetal bovine serum (FBS) and 1% w/w pen-strep, with or without 10 ng/ml doxycycline. Pen-Strep is a commercially available mixture of penicillin G and streptomycin, which is used in mammalian cell culture media to prevent bacterial contamination. Phenol Red Free Dulbecco's Modified Eagle Medium (DMEM) supplemented with 10% w/w charcoal-dextran treated fetal bovine serum (FBS) and 1% w/w pen-strep, with or without 10 ng/mL doxycycline is herein referred to as Treatment Medium. Following seeding of cells in the plates, the plates were spun at 300×g for 30 seconds, then equilibrated to room temperature for 30 minutes, and then deposited in a humidified tissue culture incubator maintained at 37° C. with 5% CO2.
(§4) At 24 hours after seeding of the cells, dilutions of test compound were prepared in DMSO and dissolved in Treatment Medium, to achieve a final DMSO concentration of 0.5% w/w, thereby providing the Test Compound Solution. A 25 μL aliquot of the Test Compound Solution was added to cells in the well plates. An equal volume of a solution containing DMSO and Treatment Medium was used as a negative control. Following treatment of cells with Test Compound Solution or said equal volume of a solution containing DMSO and Treatment Medium, the plates were spun at 300×g for 30 seconds, and then left in an incubator for 72 hours.
(§5) At the end of the treatment duration, cell viability was quantified with CellTiter-Glo 2.0 reagent (Promega Cat #G9243). For this purpose, plates were equilibrated to room temperature for 30 minutes, and then 25 μL of CellTiter-Glo 2.0 reagent was added to cells in the plate wells. Plates were then agitated on a shaker for two minutes at 500 rpm and subsequently incubated at room temperature for 10 minutes. Following incubation, the plates were spun at 3000×g for 30 seconds, then sealed with an optical adhesive cover, and luminescence readings were measured with an En Vision Plate Reader.
(§6) Data was normalized using zero luminescence for baseline. A four-parameter non-linear regression curve fit was applied to dose-response data in GraphPad Prism data analysis software to determine the half-maximal growth inhibitory concentration (GI50) for each test compound.

Assay [2] relates to T-Rex 293 cell line SC3 cells lacking increased expression of androgen receptor protein. The experiment in a line: Cellular growth inhibition, T-Rex 293 SC3 cells without doxycycline (CellTiter-Glo 2.0, 72 hours). It counts as cell-based. The following applies: T-Rex 293 SC3 cells not exposed to doxycycline (no increased androgen receptor expression). How it is done:
as §1, §2, §3, §4, §5, §6
(In general: Cellular ATP, detected with luciferase, serves as a proxy for viable cell number.)

The test system of assay [3] is VCaP cells. The experiment in a line: Cellular growth inhibition assay for VCaP cells (CellTiter-Glo 2.0, 72 hours). To be noted: for GI50: CellTiter-Glo 2.0; for Ratio of GI50's: GI50 of the top compound in the pair divided by GI50 of the lower compound. The format is cell-based, human. How it is done: Exemplary compounds were tested for ability to inhibit the proliferation of VCaP cells. VCap cells are a commercially available human prostate cancer cell line.
VCaP cells were purchased from American Type Cell Culture (ATCC Cat #CRL2876) and then seeded on poly-D-lysine coated, black clear-bottom 384-well plates at 5000/well in 25 μL Dulbecco's Modified Eagle Medium (DMEM) supplemented with 10% w/w Fetal bovine serum (FBS) and 1% w/w Pen-Strep. Pen-Strep is a commercially available mixture of penicillin G and streptomycin, which is used in mammalian cell culture media to prevent bacterial contamination. Dulbecco's Modified Eagle Medium (DMEM) supplemented with 10% w/w fetal bovine serum (FBS) and 1% w/w Pen-Strep is herein referred to as Treatment Medium. Following seeding of cells in the plates, the plates were spun at 300×g for 30 seconds, then equilibrated to room temperature for 30 minutes, and then deposited in a humidified tissue culture incubator maintained at 37° C. with 5% CO2.
as §4, §5, §6

Consider `COc1cc(O[C@H]2CC[C@H](NC(=O)c3ccc(N4CCC5(CCN(c6ccc(C7=N[C@@H](C)c8nnc(C)n8-c8sc(C)c(C)c87)cc6C(C)C)CC5)C4)nn3)CC2)ccc1C#N` [Compound I-105, N-[4-(4-cyano-3-methoxy-phenoxy)cyclohexyl]-6-[8-[2-isopropyl-4-[(9S)-4,5,9,13-tetramethyl-3-thia1,8,11,12-tetrazatricyclo[8.3.0.0^2,6]trideca-2 (6),4,7,10,12-pentaen-7-yl]phenyl]-2,8-diazaspiro[4.5]decan-2-yl]pyridazine-3-carboxamide], for which the 50% growth inhibitory concentration (GI50) was less than 500 nM in assay [1]; more than 3000 nM in assay [2] (72 h); 500 to 1500 nM in assay [3] (Homo sapiens, VCaP, 72 h).

Turning to `COc1cc(O[C@H]2CC[C@H](NC(=O)c3ccc(N4CCC5(CCC(Oc6ccc(C7=N[C@@H](C)c8nnc(C)n8-c8sc(C)c(C)c87)cc6)C5)C4)nn3)CC2)ccc1C#N` (stereo partly shown) [Compound I-51], the GI50 in assay [1], in assay [2] and in assay [3] (72 hours) was less than 500 nM in each case.

Take `COc1cc(O[C@H]2CC[C@H](NC(=O)c3ccc(N4CCC5(CC4)CC(Oc4ccc(C6=N[C@@H](Cc7ncco7)c7nnc(C)n7-c7sc(C)c(C)c76)cc4F)C5)nn3)CC2)ccc1C#N` [Compound I-133]: the GI50 in assay [1] is less than 500 nM; in assay [2] (72 h) it was less than 500 nM; in assay [3] (Homo sapiens, VCaP, 72 h) it was less than 500 nM.

For the compound `COCC[C@@H]1N=C(c2ccc(C#CC3CC4(C3)CN(c3ccc(C(=O)N[C@H]5CC[C@H](Oc6ccc(C#N)c(OC(F)(F)F)c6)CC5)nn3)C4)cc2)c2c(sc(C)c2C)-n2c(C)nnc21` [Compound I-9, N-[4-[4-cyano-3-(trifluoromethoxy)phenoxy]cyclohexyl]-6-[6-[2-[4-[(9S)-9-(2-methoxyethyl)-4,5,13-trimethyl-3-thia-1,8,11,12-tetrazatricyclo[8.3.0.0^2,6]trideca-2 (6),4,7,10,12-pentaen-7-yl]phenyl]ethynyl]-2-azaspiro[3.3]heptan-2-yl]pyridazine-3-carboxamide], the GI50 is less than 500 nM in assay [1]; less than 500 nM in assay [2] (72 h); less than 500 nM in assay [3] (Homo sapiens, VCaP, 72 h).

For `Cc1sc2c(c1C)C(c1ccc(C3CCC4(CC3)CCN(c3ncc(C(=O)N[C@H]5C(C)(C)[C@H](Oc6ccc(C#N)c(Cl)c6)C5(C)C)cn3)C4)cc1)=N[C@@H](Cc1ncco1)c1nnc(C)n1-2` [D, reference compound], the results for the “Ratio of GI50's” value in assay [1] and in assay [3] were 3.8 and 6.5, respectively.

Turning to `COc1cc(O[C@H]2CC[C@H](NC(=O)c3ccc(N4CCCC5(CCN(c6ccc(C7=N[C@@H](C)c8nnc(C)n8-c8sc(C)c(C)c87)cc6)CC5)C4)nn3)CC2)ccc1C#N` [Compound I-18], the GI50 in assay [3] (Homo sapiens, VCaP, 72 h) was less than 500 nM.

On to `Cc1sc2c(c1C)C(c1ccc(C3CCC4(CC3)CCN(c3ccc(C(=O)N[C@H]5CC[C@H](Oc6ccc(C#N)c(Cl)c6)CC5)nn3)C4)cc1)=N[C@@H](Cc1ncco1)c1nnc(C)n1-2` (stereo partly shown) [J, reference compound], for which the figures for the “Ratio of GI50's” value in assay [1] and in assay [3] were 3.2 and 3.0, respectively.

In the case of `COc1cc(O[C@H]2CC[C@H](NC(=O)c3ccc(N4CCC5(CCCN(c6ccc(C7=N[C@@H](C)c8nnc(C)n8-c8sc(C)c(C)c87)cc6)C5)C4)nn3)CC2)ccc1C#N` (stereo partly drawn) [Compound I-82, N-((1r,4r)-4-(4-cyano-3-methoxyphenoxy)cyclohexyl)-6-(7-(4-((S)-2,3,6,9-tetramethyl-6H-thieno[3,2-f][1,2,4]triazolo[4,3-a][1,4]diazepin-4-yl)phenyl)-2,7-diazaspiro[4.5]decan-2-yl) pyridazine-3-carboxamide], the GI50 in assay [1] was less than 500 nM; in assay [3] (Homo sapiens, VCaP, 72 h), less than 500 nM.

Consider `Cc1sc2c(c1C)C(c1ccc(N3CCC4(CC3)CCN(c3ccc(C(=O)N[C@H]5CC[C@H](Oc6ccc(C#N)c(Cl)c6)CC5)nn3)C4)cc1)=N[C@@H](C)c1nnc(C)n1-2` [H, reference compound], for which the “Ratio of GI50's” value in assay [1] was determined as 8.4; in assay [3], 1.8.

Turning to `Cc1sc2c(c1C)C(c1ccc(C#CC3CC4(C3)CN(c3ccc(C(=O)N[C@H]5CC[C@H](Oc6ccc(C#N)c(Cl)c6)CC5)nn3)C4)cc1F)=NC(Cc1ncco1)c1nnc(C)n1-2` (stereo partly shown) [K, reference compound], the “Ratio of GI50's” value in assay [1] was found to be 2.0; in assay [3], 1.5.

With `Cc1sc2c(c1C)C(c1ccc(CC3CC4(CCN(c5ccc(C(=O)N[C@H]6CC[C@H](Oc7ccc(C#N)c(Cl)c7)CC6)nn5)CC4)C3)cc1)=N[C@@H](Cc1ncco1)c1nnc(C)n1-2` [F, reference compound], the entries for the “Ratio of GI50's” value in assay [1] and in assay [3] were 3.8 and 1.9, respectively.

Consider `Cc1sc2c(c1C)C(c1ccc(C#CC3CC4(C3)CN(c3ccc(C(=O)N[C@H]5CC[C@H](Oc6ccc(C#N)c(Cl)c6)CC5)nn3)C4)cc1)=N[C@@H](Cc1ncco1)c1nnc(C)n1-2` [G, reference compound], for which the “Ratio of GI50's” value was 1.7 in assay [1] and 1.5 in assay [3].

For `COc1cc(O[C@H]2CC[C@H](NC(=O)c3ccc(N4CCC5(CCCN(c6ccc(C7=N[C@@H](C)c8nnc(C)n8-c8sc(C)c(C)c87)cc6)C5)C4)nn3)CC2)ccc1C#N` (stereo partly shown) [Compound I-98], the GI50 in assay [2] (72 h) is less than 500 nM.

Consider `COc1cc(O[C@H]2CC[C@H](NC(=O)c3ccc(N4CCC5(CCN(c6ccc(C7=N[C@@H](C)c8nnc(C)n8-c8sc(C)c(C)c87)cc6)CC56CCC6)C4)nn3)CC2)ccc1C#N` (stereo partly shown) [Compound I-130], for which the GI50 in assay [1] is less than 500 nM; in assay [3] (Homo sapiens, VCaP, 72 h), less than 500 nM.

`COc1cc(O[C@H]2CC[C@H](NC(=O)c3ccc(N4CCC5(CCN(c6ccc(C7=N[C@@H](C)c8nnc(C)n8-c8sc(C)c(C)c87)cc6)CC56CCC6)C4)nn3)CC2)ccc1C#N` (stereo partly shown) [Compound I-132] registered a concentration for 50% growth inhibition (GI50) in assay [2] (72 h) of less than 500 nM.

Turning to `Cc1sc2c(c1C)C(c1ccc(OC3CC4(CCN(c5ccc(C(=O)N[C@H]6CC[C@H](Oc7ccc(C#N)c(Cl)c7)CC6)nn5)CC4)C3)cc1)=N[C@@H](Cc1ncco1)c1nnc(C)n1-2` [E, reference compound], the “Ratio of GI50's” value in assay [1] is recorded as 4.7; in assay [3] it was 4.4.

As for `COc1cc(O[C@H]2CC[C@H](NC(=O)c3ccc(N4CCCC5(CCN(c6ccc(C7=N[C@@H](C)c8nnc(C)n8-c8sc(C)c(C)c87)cc6)CC5)C4)nn3)CC2)ccc1C#N` [Compound I-26], the GI50 in assay [1] and in assay [2] (72 h) was less than 500 nM in each case.

On to `Cc1sc2c(c1C)C(c1ccc(CC3CC4(CCN(c5ncc(C(=O)N[C@H]6C(C)(C)[C@H](Oc7ccc(C#N)c(Cl)c7)C6(C)C)cn5)CC4)C3)cc1)=N[C@@H](Cc1ncco1)c1nnc(C)n1-2` [C, reference compound], for which the figures for the “Ratio of GI50's” value in assay [1] and in assay [3] were 22.0 and 2.6, respectively.
